The source of these data is publication PMC5131364, “Pharmacologic modulation of RORγt translates to efficacy in preclinical and translational models of psoriasis and inflammatory arthritis” (Scientific Reports, 2016).

Each structure is given as a SMILES string.

What all share (type): cell-based
Assay [1] has as its system CD4+ T cells from draining lymph nodes restimulated with OVA. Nature of the assay: In vivo mouse Th17 differentiation (OVA/CFA) and in vitro restimulation. Particulars: 1 μM, OVA restimulation. The text has this:
The following antibodies (anti-mouse or anti-human) were purchased from BD Biosciences (San Diego, CA) or eBioscience (San Diego, CA): anti-CD3-FITC (mouse 17A2 and human SK7), anti-CD4-allophycocyanin (APC), anti-CD4-PerCp, anti-CD4-FITC, anti-CD4-PE (mouse GK1.5 and human SK3), anti-CD44-PerCp (mouse IM7), anti-γδ TCR-FITC, anti-γδ TCR-PE (mouse GL3 and human B1), anti-CD62L-FITC (mouse MEL-14 and human SK11), anti-CD45RO-APC (human UCHL1), anti-CCR6-PE (human 11A9), anti-CD45-PerCp (mouse 30-F11). Human or mouse anti-IFNγ (mouse XMG1.2 and human 4S.B3), anti-TNFα (mouse MP6-XT22 and human MAB11), anti-IL-17A (mouse eBio17B7 and human eBio64DEC17), anti-IL-22 (mouse 1H8PWSR and human 22URTI), and anti-Foxp3 (mouse FJK-16s and human 36A/E7), all PE or APC conjugated, were purchased from eBioscience (San Diego, CA). Human and mouse APC conjugated CD1d tetramers pre-loaded with alpha-GalCer and negative controls were obtained from ProImmune. […] Cells were stained with fluorescence-labeled antibodies for surface marker, then fixed/permeabilized (eBioscience) and stained with antibodies for intracellular cytokines. […] The data were acquired on a FACS Calibur (BD Bioscience) and analyzed using FlowJo software (Tree Star, San Carlos, CA). […]

The subject of assay [2] is human iTreg cells co-cultured with responder CD4+ T cells. The assay is described as follows: Human inducible regulatory T cells suppressive function. Particulars: iTreg generated in presence of 1 μM, CFSE. As for the experimental part:
37 °C and 5% CO2 for 6 days. Cells were used for flow cytometry analysis of FOXP3+CD4+ T cells and RNA isolation to determine FOXP3 expression. The probe sets were purchased form Life technologies, FOXP3 […]
Human inducible regulatory T cells generation and suppressive function
To generate inducible regulatory T cells, naïve CD4 T cells was purified from PBMCs using naive CD4+ T cell isolation kit II, human (Miltenyi) and stimulated with anti‐CD3/anti‐CD28 antibodies plus IL‐2 and TGF‐β (10 ng/ml each, R&D system) in the presence or absence of 1µM JNJ‐54271074 . After 6‐7 days T cells were washed and Foxp3 expression was evaluated by FACS. […] After 4 days CFSE dilution was evaluated by FACS as an indication of responder T cell’s proliferation.
Supplementary Figure 1. […] Accumulated IL‐ 17A or IFNγ  was measured by ELISA.
Supplementary Figure 2. […] Total splenocytes were cultured with IL‐23 and IL‐2 in the presence of titrated JNJ‐54271074 for 4 days, and supernatants were measured for IL‐17A and IL‐22 by ELISA. IC50 was determined using Prism Graphpad.
Supplementary Figure 3. […] Cells were analyzed by flow cytometry for 17A+ and IL‐ 17A+/22+ population (A). […] Cells from DMSO or 1 µM JNJ‐54271074 treated wells were analyzed by flow cytometry for IFNγ+ and IL‐17A+ population (B) and IFNγ level in supernatants was […]

The test system of assay [3] is CLA+ memory T cells / autologous epidermal cells from guttate psoriasis patients. The assay is described as follows: Co-culture of human psoriatic CLA+ memory T cells with epidermal cells, streptococcal extract. The text has this: The study protocol was reviewed and subsequently approved by the Medical Ethics Committee of the Hospitals where the biopsies and blood were procured. All psoriasis donors in this study were required to be without disease-specific systemic therapy for at least 4 weeks or topical treatment for at least 2 weeks before the clinical samples were obtained. Circulating CLA^+/CLA^− CD45RO^+ CD3^+ cells and lesional epidermal cells were obtained from the same guttate psoriasis patient following the procedure described previously. In brief, memory T cell populations were isolated and enriched from peripheral blood lymphocytes by immunomagnetic separations. Epidermal cell suspensions were obtained from lesional biopsies by a dispase/trypsin treatment. The culture system was performed by seeding 50,000 circulating CLA^+ or CLA^− memory T cells with 30,000 autologous epidermal cells in a 96-flat bottom microwell plate (Nunc, Roskilde, Denmark) with culture medium (RPMI with 10% fetal calf serum). […] Cytokines in supernatants were quantified by multiplex fluorescent bead-based immunoassay, Diaclone DIAplex kit (Gen-Probe, Besançon, France), and data were collected with a F500 Flow Cytometer (Beckman Coulter, Fullerton, CA).

[4] abbreviates: 1 μM, SE-stimulated CLA+/epidermal cell co-culture, not statistically significant.

As to `COc1nc2ccc([C@@](O)(c3ccc(C)nc3C)c3cnnn3C)cc2c(Cl)c1Cc1ccc(C(F)(F)F)cc1` [JNJ-54271074], in assay [1], the “IL-17A+ and IL-17A+ IL-22+ CD4+ T cells” value is listed as “significantly suppressed”; the “IL-22 single positive cells” value is “no effect”. Further, the “Treg suppressive activity on T cell proliferation” value in assay [2] is reported as “not affected”. The “TNFα and IL-8 production” value in assay [3] (1 μM, SE-stimulated CLA+/epidermal cell co-culture) is listed as “no effect”. For the same molecule, in assay [3] (setting [4]), the “increase of IFNγ production” value was determined as 64%, the “reduction of IL-6” value came to 32% and the “reduction of IL-17F production” value was 40%. Further, in assay [3] (1 μM, SE-stimulated CLA+/epidermal cell co-culture, vs DMSO, significant), the “decrease of IL-17A production” value came out at 78%. Further, the “IL-17A production in human cell co-culture model” value in assay [3] (discussion, in words) is recorded as “significant inhibition”.
